Literature values in patent US11678659B2, “Use as rodenticides of compounds that inhibit blood coagulation” (priority 2014, dated 2023).

Legend:
thrombin receptor PAR-1 = biological target: T1, thrombin receptor PAR-1 (Homo sapiens, UniProt P25116)
T1 construct: endogenous in cells; host or cells: study subjects (in vivo), platelets
T1 sequence (P25116 22-425): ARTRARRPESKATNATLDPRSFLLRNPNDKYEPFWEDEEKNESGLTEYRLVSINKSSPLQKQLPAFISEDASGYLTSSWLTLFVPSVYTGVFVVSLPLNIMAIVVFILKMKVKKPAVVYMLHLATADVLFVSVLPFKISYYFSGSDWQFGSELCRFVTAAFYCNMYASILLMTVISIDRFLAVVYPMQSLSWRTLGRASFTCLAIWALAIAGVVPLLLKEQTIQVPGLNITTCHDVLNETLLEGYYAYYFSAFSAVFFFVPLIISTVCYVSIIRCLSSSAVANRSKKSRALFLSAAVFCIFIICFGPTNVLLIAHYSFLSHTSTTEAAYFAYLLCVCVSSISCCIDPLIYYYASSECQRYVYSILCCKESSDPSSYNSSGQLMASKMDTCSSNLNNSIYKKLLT

thrombin = biological target: T2, thrombin (Homo sapiens, UniProt P00734); settings: administration for more than 35 days
T2 construct: from tissue; host or cells: blood of human subjects (in vivo)

Compound	bleedings observed (thrombin receptor PAR-1; one study)	liver enzymes (thrombin receptor PAR-1; two phase II studies)	liver toxicity (thrombin)
Br.CCOc1cc2c(c(F)c1OCC)C(=N)N(CC(=O)c1cc(N3CCOCC3)c(OC)c(C(C)(C)C)c1)C2 [Atopaxar, 1-(3-tert-butyl-4-methoxy-5-morpholin-4-yl-phenyl)-2-(5,6-diethoxy-4-fluoro-3-imino-1H-isoindol-2-yl)ethanone-hydrobromide]	not statistically significant	increase in liver enzymes	
CCOC(=O)CN[C@@H](C(=O)N1CC[C@H]1C(=O)NCc1ccc(/C(N)=N\O)cc1)C1CCCCC1 [ximelagatran]			risk of liver toxicity
